Measurements as given in patent US8653271B2 (priority 2006, dated 2014).
In brackets after ≈: the same amount, converted by molar mass.

Legend:
[1] = format: physicochemical
Experimental: Equal amounts of the each of the codrug were distributed into labeled test-tubes (20 nmol in each tube). Care was taken to ensure that the entire codrug was dissolved and the solution remained clear. Hydrolysis of the carbonate codrug (˜20 nmol) was conducted in isotonic phosphate buffer pH 7.4 at 32° C. in a water-bath with continuous stirring. […] Samples were collected at predetermined time intervals and stored in the freezer at −20° C. until analyzed. All experiments were conducted in triplicate. An aliquot part (250 μL) of hydrolysis solutions was mixed with 750 μL of acetonitrile, vortexed for 30s, and analyzed by HPLC for the presence of codrug and the two corresponding parent drugs, as well as for the intermediate hydrolysis product, 23. […] A Brownlee C18 reversed-phase Spheri-5 μm column (220×4.6 mm) connected to a C18 reversed-phase guard column (15×3.2 mm) was utilized and detection of solutes was carried out at 215 nm. The mobile phase consisted of a mixture of acetonitrile: 0.1% trifluoroacetic acid adjusted to pH 3.0 with triethylamine (50:50, v/v). The mobile phase flow rate was 1.5 mL/min and 100 μL of hydrolysis sample was injected onto the column.

[2] = Table 4; values obtained from Kiptoo et al.; cited from earlier work
[3] = Plasma hydrolysis of the carbonate codrug; format: in vitro ADME, guinea pig; settings: guinea pig plasma in vitro at 37° C.
Experimental: Guinea pig plasma, which was stored at −20° C., was thawed to room temperature. Known and sub-saturated amounts of the codrug (50 nmol) were added to approximately 2.0 ml of the guinea pig plasma and vortexed. Two-hundred μl aliquots of the spiked plasma were distributed into sealed vials, and incubated at 37° C. Samples were withdrawn at predetermined time intervals; 0, 0.5, 1, 2, 4, 6, 9, 24, 30, and 48 h. 500 μl of ACN was added to each sample to precipitate plasma protein. Each sample was vortexed and centrifuged at 10,000×g for 15 min. The supernatant was separated and evaporated under nitrogen at room temperature, and the residue was reconstituted with ACN for high-pressure liquid chromatography (HPLC) analysis. A standard curve was prepared from drug-spiked plasma samples processed by the same method. The amounts of the codrug remaining or parent drugs released were plotted against time. These hydrolytic profiles were fit to previously developed mathematical models using nonlinear least-squares regression analysis ([…]®, Micromath Inc., Salt Lake City, Utah) as described by the equations below: […]

[4] = physchem; format: physicochemical; settings: thermodynamic from solid
Experimental: The solubilities of CB-NTXOL-BUPOH, hydroxybupropion, and 6-β-naltrexol were determined by adding excess quantity of drug to mineral oil or pre-warmed HEPES-buffered Hanks' salt solution pH 7.4 at 32° C. (skin surface temperature), with equilibration while shaking in a water bath at 60 rpm. Weighing 4 mg of each of the drugs and placing them in 1 ml of each of the respective solvents was enough to ensure that there was excess drug in solution. Samples were drawn into a pre-warmed glass syringe, filtered through a syringe filter (Mineral oil: Millex FG-13, Millipore, Billerica, Mass., USA, and buffer: nylon filter, Gelman, East Hills, N.Y., USA), and measured with respect to volume and diluted with an appropriate volume of acetonitrile or buffer. The drug from the buffer samples was immediately extracted by solid phase extraction as described above. Drugs in mineral oil were diluted with a hundred-fold volume of acetonitrile and extraction recoveries were >95% for all the drugs. The sampling procedure was done in triplicate, discarding the first 40% of the initial filtrate. […]. For buffer solubilities, samples were taken after 30 min of sonication (to minimize the hydrolysis of the codrug). No significant difference was found between 30 min sonication solubility measurements and equilibrium solubility measurements taken after 48 h for 6-β-naltrexol.

[5] = saturated solution in light mineral oil, human skin, 32° C., 48 h; codrug in 6-β-naltrexol equivalents
Experimental: Human skin harvested during abdominal reduction surgery was used for the diffusion studies. Skin sections were obtained by using a Padgett dermatome set to 250 μm; these sections were stored at −20° C. Stored skin samples were thawed to room temperature at the time of the experiment. A PermeGear flow-through (In-Line, Riegelsville, Pa., USA) diffusion cell system was used for the skin permeation studies. Skin surface temperature was maintained at 32° C. with a circulating water bath. Data was collected by using human skin from a single donor with three cells of 6-β-naltrexol and four cells CB-NTXOL-BUPOH. Because of normal human skin inter-subject permeation variability, the codrug was compared against 6-β-naltrexol permeation within each individual skin sample. These studies were repeated three times with skin from different human subject donors. The receiver solution was HEPES-buffered Hanks' balanced salt solution pH 7.4 set at a flow rate of 1.1 ml/h. […] A saturated solution of 6-β-naltrexol or CB-NTXOL-BUPOH in light mineral oil was applied to the skin in order to maintain a maximum and constant thermodynamic activity of the drug. Each cell was charged with 0.25 ml of the respective drug solution. […] All samples were immediately processed by solid phase extraction, evaporated under nitrogen, reconstituted, and analyzed for drug content by HPLC. The human tissue use was approved by the University of Kentucky Institutional Review Board.
Cumulative quantity of drug collected in the receiver compartment was plotted as a function of time. The flux value for a given experiment was obtained from the slope of the steady-state portion of the cumulative amount of drug permeated vs. time plot. Apparent permeability coefficient values were computed from Fick's First Law of diffusion:
Sink conditions were maintained in the receiver throughout the experiment, so ΔC was approximated by the drug concentration (solubility in this case) in the donor compartment.
The skin tissue was rinsed with filtered water and blotted with a paper towel. The tissue was tape-stripped twice to remove surface formulation. The area of skin with drug contact was cut out, chopped into tiny pieces, and placed in a pre-weighed vial. The vial was weighed to calculate the mass of the skin. Ten milliliters of acetonitrile was added to each vial, the vials vortexed, sonicated for 10 min, and placed in a shaker overnight. The following day, a 1 ml sample was obtained from the vials and placed in autosampler vials for analysis. […] Flux values and skin concentrations for each of the drugs were reported as mean±S.D and were statistically compared using a paired Student's t-test. Flux enhancement as well as drug disposition in the skin were considered significant at p<0.05.

[6] = Differential scanning calorimetry; format: physicochemical
[7] = human skin, values obtained from Kiptoo et al., cited from earlier work
[8] = humans; cited from earlier work

Cc1c(-c2cccc(Cl)c2)oc(=O)n1C(C)(C)COC(=O)Oc1ccc2c3c1OC1C(=O)CCC4(O)C(C2)N(CC2CC2)CCC314 (stereo not drawn) [Compound 25]
first-order rate constant k3 ([1]; generation of BUPOH from codrug 25, isotonic phosphate buffer pH 7.4): 0.0483 h⁻¹ | first-order rate constant k1 ([1]; hydrolysis at carbonate linker generating NTX (25) or NTXOL (26), isotonic phosphate buffer pH 7.4, 32° C.): 0.0179 h⁻¹

CC1NC(C)(C)COC1(O)c1cccc(Cl)c1 (racemic) [Compound 4, (+/−)-2-(3-chlorophenyl)-3,5,5-trimethyl-2-morpholinol]
Light mineral oil solubility [2]: 4.04 ± 0.04 mM | Guinea pig plasma half-life [3]: stable | solubility at 30 min ([4]; aqueous buffer, pH 7.4, 32° C., 30 min sonication, read-out: Hanks' buffer solubility): 3.85 mM (≈ 985 µg/mL) | solubility at 48 h ([4]; oil or lipid, 32° C., 48 h equilibration (Table 3), read-out: Light mineral oil solubility): 4.04 mM (≈ 1030 µg/mL) | Flux from mineral oil [5]: 25.89 nmol cm^−2 h^−1 | Mean activity of solid @ T = 25° C., a2 ([6]; calculated from melting point and heat of fusion): 0.34 | Heat of fusion, ΔHf ([6]; ±s.d., n = 3): 2.58 ± 0.012 kcal/mol | In vitro flux ([7]; codrug as NTXOL equivalent flux): 25.89 ± 6.01 nmol cm^−2 h^−1 | In vitro lag time [7]: 7.83 ± 1.73 h

O=C1CC[C@@]2(O)[C@H]3Cc4ccc(O)c5c4[C@@]2(CCN3CC2CC2)[C@H]1O5 [Compound 1, Naltrexone]
oral bioavailability [8]: 5-40%
